Measured values published in US11279712B2, “Macrocyclic compounds that inhibit MCL-1 protein” (AMGEN INC., priority 2017, dated 2022).
Read-outs that look alike come from different tables or passages of the source.

How the values were obtained:
[1] = system: OPM-2 human multiple myeloma cell line; experiment: Cell Viability Assay (OPM-2 10 FBS); assay type: cell-based; details: OPM-2 cells, CellTiter-Glo, read-out: OPM-2 10% FBS IC50 IP
Description: Cell Viability Assay (OPM-2 10 FBS)
The human multiple myeloma cell line, OPM-2, was cultured in complete growth medium containing RPMI 1640 and 10% fetal bovine serum (FBS). Cells were seeded into 384-well plates at 3000 cells/well density in complete growth medium containing 10% FBS, and incubated for 16 h with serially diluted test compounds in a 37° C. incubator with 5% CO2. Cell viability was tested using CellTiter-Glo® assay (Promega, Madison, Wis.) according to the manufacturer recommendations. Luminescence was determined using an EnVision® Multilabel plate reader 25 min after the addition of detection reagent. IC50 values were then calculated with Xlfit using a logistical 4-parameter fit model in GraphPad Prism (GraphPad Software, San Diego, Calif.) or in Genedata Screener® (Genedata, Basel, Switzerland).

[2] = molecular target: Mcl-1/Bim interaction (recombinant human Mcl-1 residues 171-327) (Homo sapiens (Human), UniProt Q07820); experiment: Cell Free Mcl-1:Bim Affinity Assay (Mcl-1 HTRF); assay type: binding; details: TR-FRET, 0.1 nM Mcl-1(171-327), 0.05 nM biotin-Bim(51-76)
Description: Cell Free Mcl-1:Bim Affinity Assay (Mcl-1 HTRF)
The inhibition of the Mcl-1/Bim interaction was measured using a time-resolved fluorescence resonance energy transfer (TR-FRET) assay. The recombinant human Mcl-1 (C-terminally 6×His tagged Mcl-1 containing residues 171-327) was generated at Amgen Inc (Thousand Oaks, Calif.). A biotinylated peptide derived from human Bim (residues 51-76) was purchased from CPC Scientific (San Jose, Calif.). The TR-FRET assay was conducted in a 384-well white OptiPlate™ (PerkinElmer, Waltham, Mass.) in a total volume of 40 μL. The reaction mixture contained 0.1 nM Mcl-1(171-327), 0.05 nM biotin-Bim(51-76), 0.05 nM LANCES Eu-W1024 Anti-6×His (PerkinElmer), 0.072 nM Streptavidin-Xlent (Cisbio, Bedford, Mass.), and serially diluted test compounds in the binding buffer of 20 mM Hepes, pH 7.5, 150 mM NaCl, 0.016 mM Brij®35, and 1 mM dithiothreitol. Test compounds were pre-incubated with Mcl-1(171-327) and biotin-Bim (51-76) for 60 min before addition of the detection mixture (LANCE® Eu-W1024 Anti-6×His and Streptavidin-Xlent). The reaction plates were further incubated overnight and then were read on an Envision® multimode reader (PerkinElmer). Fluorescence signals were measured at 620 nm (40-nm bandwidth) and 665 nm (7.5-nm bandwidth) with a 60 μs delay after excitation at 320 nm (75-nm bandwidth). The signal ratio at 665/620 nm corresponded to the Mcl-1/Bim interaction and was used in all data analyses. The IC50 values of test compounds were determined from duplicate data by analyzing competition curves using a four-parameter sigmoidal model in GraphPad Prism (GraphPad Software, San Diego, Calif.) or in Genedata Screener® (Genedata, Basel, Switzerland).

Chain of Mcl-1/Bim interaction (recombinant human Mcl-1 residues 171-327) (Q07820 171-327): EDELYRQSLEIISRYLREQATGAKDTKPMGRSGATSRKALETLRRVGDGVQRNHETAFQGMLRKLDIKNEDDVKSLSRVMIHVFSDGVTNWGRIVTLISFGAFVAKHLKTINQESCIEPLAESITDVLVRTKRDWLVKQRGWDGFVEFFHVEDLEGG

| SMILES | IC50 ([1]; 16 h) | IC50 [2] | IC50 ([1]; Homo sapiens, OPM-2, 16 h) |
| --- | --- | --- | --- |
| C[C@@H]1[C@@H](C)CCC[C@H](CN2CCN3CCN(C)C[C@@H]3C2)[C@@H]2CC[C@H]2CN2C[C@@]3(CCCc4cc(Cl)ccc43)COc3ccc(cc32)C(=O)NS1(=O)=O (single isomer, unassigned) [Example 6] | 177 nM | 0.353 nM |  |
| C[C@@H]1[C@@H](C)CCC[C@H](CN2CCN3CCNC[C@@H]3C2)[C@@H]2CC[C@H]2CN2C[C@@]3(CCCc4cc(Cl)ccc43)COc3ccc(cc32)C(=O)NS1(=O)=O (stereo in doubt) [Example 81] |  | 0.831 nM | 3560 nM |
| CC(=O)[C@@H]1CCC[C@H](C)[C@@H](C)S(=O)(=O)NC(=O)c2ccc3c(c2)N(C[C@@H]2CC[C@H]21)C[C@@]1(CCCc2cc(Cl)ccc21)CO3 (single isomer, unassigned) [Example 45] | 675 nM | 0.338 nM |  |
| CC[C@H](O)[C@H]1/C=C/C[C@H](C)[C@@H](C)S(=O)(=O)NC(=O)c2ccc3c(c2)N(C[C@@H]2CC[C@H]21)C[C@@]1(CCCc2cc(Cl)ccc21)CO3 (single isomer, unassigned) [Example 61] | 1410 nM | 0.281 nM |  |
| COCC[C@@H]1[C@@H](C)CCC[C@H](CO)[C@@H]2CC[C@H]2CN2C[C@@]3(CCCc4cc(Cl)ccc43)COc3ccc(cc32)C(=O)NS1(=O)=O (single isomer, unassigned) [Example 29] | 366 nM | 0.226 nM |  |
| CC[C@@H](O)[C@@H]1/C=C/C[C@H](C)[C@@H](C)S(=O)(=O)NC(=O)c2ccc3c(c2)N(C[C@@H]2CC[C@H]21)C[C@@]1(CCCc2cc(Cl)ccc21)CO3 (single isomer, unassigned) [Example 49] | 778 nM | 0.377 nM |  |
| CC(=O)N1CCN(C[C@H]2CCC[C@H](C)[C@@H](C)S(=O)(=O)NC(=O)c3ccc4c(c3)N(C[C@@H]3CC[C@@H]23)C[C@@]2(CCCc3cc(Cl)ccc32)CO4)CC1 (stereo in doubt) [Example 33] | 411 nM | 0.172 nM |  |
| COCCN1CCN(C[C@H]2CCC[C@H](C)[C@@H](C)S(=O)(=O)NC(=O)c3ccc4c(c3)N(C[C@@H]3CC[C@@H]23)C[C@@]2(CCCc3cc(Cl)ccc32)CO4)CC1 (single isomer, unassigned) [Example 39] | 535 nM | 0.829 nM |  |
| C[C@@H]1[C@@H](C)CCC[C@H]([C@@H](C)O)[C@@H]2CC[C@H]2CN2C[C@@]3(CCCc4cc(Cl)ccc43)COc3ccc(cc32)C(=O)NS1(=O)=O (single isomer, unassigned) [Example 40] | 564 nM | 0.822 nM |  |
| CC(=O)N1CCN2CCN(C[C@H]3CCC[C@H](C)[C@@H](C)S(=O)(=O)NC(=O)c4ccc5c(c4)N(C[C@@H]4CC[C@@H]34)C[C@@]3(CCCc4cc(Cl)ccc43)CO5)C[C@H]2C1 (single isomer, unassigned) [Example 35] | 421 nM | 0.05 nM |  |
| C[C@@H]1[C@@H](C)CCC[C@H](CN2CCOCC2)[C@@H]2CC[C@H]2CN2C[C@@]3(CCCc4cc(Cl)ccc43)COc3ccc(cc32)C(=O)NS1(=O)=O (single isomer, unassigned) [Example 67] | 1670 nM | 1.05 nM |  |
| CC[C@@H](O)[C@@H]1/C=C/C[C@H](C)[C@@H](C)S(=O)(=O)NC(=O)c2ccc3c(c2)N(C[C@@H]2CC[C@H]21)C[C@@]1(CCCc2cc(Cl)ccc21)CO3 (single isomer, unassigned) [Example 75] | 2440 nM | 0.808 nM |  |
| C[C@@H]1[C@@H](C)CCC[C@H](CC(=O)N(C)C)[C@@H]2CC[C@H]2CN2C[C@@]3(CCCc4cc(Cl)ccc43)COc3ccc(cc32)C(=O)NS1(=O)=O (stereo in doubt) [Example 28] |  | 0.287 nM | 364 nM |
| C[C@@H]1[C@@H](C)CCC[C@H](CN2CCN3CCN(C)C[C@@H]3C2)[C@@H]2CC[C@H]2CN2C[C@@]3(CCCc4cc(Cl)ccc43)COc3ccc(cc32)C(=O)NS1(=O)=O (single isomer, unassigned) [Example 19] | 303 nM | 0.532 nM |  |
| C[C@@H]1[C@@H](C)CCC[C@H](CN2CC(N(C)C)C2)[C@@H]2CC[C@H]2CN2C[C@@]3(CCCc4cc(Cl)ccc43)COc3ccc(cc32)C(=O)NS1(=O)=O (single isomer, unassigned) [Example 13] |  | 0.77 nM | 258 nM |
| C[C@H]1CCC[C@H](CO)[C@@H]2CC[C@H]2CN2C[C@@]3(CCCc4cc(Cl)ccc43)COc3ccc(cc32)C(=O)NS(=O)(=O)C1 (single isomer, unassigned) [Example 51] | 936 nM | 0.222 nM |  |
| C[C@@H]1[C@@H](C)CCC[C@H](CN2CCN(C)CC2)[C@@H]2CC[C@H]2CN2C[C@@]3(CCCc4cc(Cl)ccc43)COc3ccc(cc32)C(=O)NS1(=O)=O (single isomer, unassigned) [Example 34] | 417 nM | 0.602 nM |  |
| C[C@@H]1[C@@H](C)CCC[C@H](C(=O)O)[C@@H]2CC[C@H]2CN2C[C@@]3(CCCc4cc(Cl)ccc43)COc3ccc(cc32)C(=O)NS1(=O)=O (single isomer, unassigned) [Example 77] | 20700 nM | 0.442 nM |  |
| C[C@@H]1[C@@H](C)CCC[C@H]([C@@H](C)O)[C@@H]2CC[C@H]2CN2C[C@@]3(CCCc4cc(Cl)ccc43)COc3ccc(cc32)C(=O)NS1(=O)=O (single isomer, unassigned) [Example 74] | 2040 nM | 3.67 nM |  |
| COCC[C@@H]1[C@@H](C)CCC[C@H](CO)[C@@H]2CC[C@H]2CN2C[C@@]3(CCCc4cc(Cl)ccc43)COc3ccc(cc32)C(=O)NS1(=O)=O (single isomer, unassigned) [Example 59] | 1320 nM | 0.921 nM |  |
| COCCN1CCN(C[C@H]2CCC[C@H](C)[C@@H](C)S(=O)(=O)NC(=O)c3ccc4c(c3)N(C[C@@H]3CC[C@@H]23)C[C@@]2(CCCc3cc(Cl)ccc32)CO4)CC1=O (stereo in doubt) [Example 3] |  | 0.257 nM | 166 nM |
| C[C@@H]1[C@@H](C)CCC[C@H](CN2CCN3CCOC[C@@H]3C2)[C@@H]2CC[C@H]2CN2C[C@@]3(CCCc4cc(Cl)ccc43)COc3ccc(cc32)C(=O)NS1(=O)=O (stereo in doubt) [Example 32] | 380 nM | 0.493 nM |  |
| CC(=O)N1CCN2CCN(C[C@H]3CCC[C@H](C)[C@@H](C)S(=O)(=O)NC(=O)c4ccc5c(c4)N(C[C@@H]4CC[C@@H]34)C[C@@]3(CCCc4cc(Cl)ccc43)CO5)C[C@H]2C1 (single isomer, unassigned) [Example 48] | 768 nM | 0.329 nM |  |
| C[C@H]([C@H]1CCC[C@H](C)[C@@H](C)S(=O)(=O)NC(=O)c2ccc3c(c2)N(C[C@@H]2CC[C@H]21)C[C@@]1(CCCc2cc(Cl)ccc21)CO3)N1CCOCC1 (single isomer, unassigned) [Example 70] | 1860 nM | 0.843 nM |  |
| C[C@@H]1[C@@H](C)CCC[C@@H](C(=O)N2CCOCC2)[C@@H]2CC[C@H]2CN2C[C@@]3(CCCc4cc(Cl)ccc43)COc3ccc(cc32)C(=O)NS1(=O)=O (single isomer, unassigned) [Example 8] | 221 nM | 0.126 nM |  |
| C[C@@H]1[C@@H](C)CCC[C@H](CN2CCN3CCN(C(=O)OC(C)(C)C)C[C@@H]3C2)[C@@H]2CC[C@H]2CN2C[C@@]3(CCCc4cc(Cl)ccc43)COc3ccc(cc32)C(=O)NS1(=O)=O (stereo in doubt) [Example 64] |  |  | 1500 nM |
| C[C@@H]1[C@@H](C)CCC[C@@H](CC(=O)N2CCN3CCOC[C@H]3C2)[C@@H]2CC[C@H]2CN2C[C@@]3(CCCc4cc(Cl)ccc43)COc3ccc(cc32)C(=O)NS1(=O)=O [Example 2, (1s,3′r,6′s,7′s,11′s,12′r)-6-chloro-7′-(2-((9ar)-hexahydropyrazino[2,1-c][1,4]oxazin-8(1h)-yl)-2-oxoethyl)-11′,12′-dimethyl-3,4-dihydro-2h,15′h-spiro[naphthalene-1,22′-[20]oxa[13]thia[1,14]diazatetracyclo[14.7.2.0˜3,6˜0.0˜19,24˜]pentacosa[16,18,24]trien]-15′-one 13′,13′-dioxide trifluoroacetic acid] |  |  | 134 nM |
